Results from patent publication US20100041089A1, “IMPROVED METHOD FOR DETECTING CHEMICAL […]” (priority 2006, published 2010).

System: yeast genes (expressed mRNA)
Assay: DNA chip measurement of expressed mRNA of yeast genes after culture with a toxic chemical substance
Format: cell-based, Saccharomyces cerevisiae S288C
Summary of the method: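 Yeast S288C, YPD 25° C; toxicant at log phase, 2 h, sublethal growth-inhibiting conc.; no-chemical control. Hot SDS/acetate RNA extraction, oligo-dT mRNA, Cy3/Cy5-dUTP RT. Whole-genome chip, 65° C >12 h. Readout: treated/control intensity ratio, ≥2 significant.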

CN(C)C(=S)SSC(=S)N(C)C [(10), Tetramethylthiuram disulfide]
The level of expressed mRNA in the presence of chemical substance/The level of expressed mRNA in the absence of chemical substance (yeast gene YNL077W): 5.1
The level of expressed mRNA in the presence of chemical substance/The level of expressed mRNA in the absence of chemical substance (yeast gene YNL092W, cultured two hours with substance): 1.5
The level of expressed mRNA in the presence of chemical substance/The level of expressed mRNA in the absence of chemical substance (yeast gene YNL115C, cultured two hours with substance): 1.9
The level of expressed mRNA in the presence of chemical substance/The level of expressed mRNA in the absence of chemical substance (yeast gene YNL156C, cultured two hours with substance): 1.9
The level of expressed mRNA in the presence of chemical substance/The level of expressed mRNA in the absence of chemical substance (yeast gene YNL190W, cultured two hours with substance): 1.1
The level of expressed mRNA in the presence of chemical substance/The level of expressed mRNA in the absence of chemical substance (yeast gene YNL195C, cultured two hours with the chemical substance): 11.7
The level of expressed mRNA in the presence of chemical substance/The level of expressed mRNA in the absence of chemical substance (yeast gene YNL208W, cultured two hours with substance): 3.1
The level of expressed mRNA in the presence of chemical substance/The level of expressed mRNA in the absence of chemical substance (yeast gene YNL234W, cultured two hours with substance): 3.3
The level of expressed mRNA in the presence of chemical substance/The level of expressed mRNA in the absence of chemical substance (yeast gene YNL277W): 10.9
The level of expressed mRNA in the presence of chemical substance/The level of expressed mRNA in the absence of chemical substance (yeast gene YNL281W, cultured two hours with substance): 1.6
The level of expressed mRNA in the presence of chemical substance/The level of expressed mRNA in the absence of chemical substance (yeast gene YNL300W, cultured two hours with substance): 0.2
The level of expressed mRNA in the presence of chemical substance/The level of expressed mRNA in the absence of chemical substance (yeast gene YNL305C, cultured two hours with substance): 2.1
The level of expressed mRNA in the presence of chemical substance/The level of expressed mRNA in the absence of chemical substance (yeast gene YNL331C): 36.3
The level of expressed mRNA in the presence of chemical substance/The level of expressed mRNA in the absence of chemical substance (yeast gene YNL331C, cultured for two hours with substance): 36.3
The level of expressed mRNA in the presence of chemical substance/The level of expressed mRNA in the absence of chemical substance (yeast gene YNR064C, cultured two hours with substance): 2.1
The level of expressed mRNA in the presence of chemical substance/The level of expressed mRNA in the absence of chemical substance (yeast gene YNR068C, cultured two hours with substance): 14.4
The level of expressed mRNA in the presence of chemical substance/The level of expressed mRNA in the absence of chemical substance (yeast gene YNR073C): 16.8
The level of expressed mRNA in the presence of chemical substance/The level of expressed mRNA in the absence of chemical substance (yeast gene YOL002C, cultured two hours with the substance): 0.3
The level of expressed mRNA in the presence of chemical substance/The level of expressed mRNA in the absence of chemical substance (yeast gene YOL032W, cultured two hours with substance): 3.0
The level of expressed mRNA in the presence of chemical substance/The level of expressed mRNA in the absence of chemical substance (yeast gene YOL036W, cultured two hours with substance): 2.8
The level of expressed mRNA in the presence of chemical substance/The level of expressed mRNA in the absence of chemical substance (yeast gene YOL047C, cultured two hours with substance): 2.3
The level of expressed mRNA in the presence of chemical substance/The level of expressed mRNA in the absence of chemical substance (yeast gene YOL058W): 15.7
The level of expressed mRNA in the presence of chemical substance/The level of expressed mRNA in the absence of chemical substance (yeast gene YOL071W, cultured two hours with substance): 2.3
The level of expressed mRNA in the presence of chemical substance/The level of expressed mRNA in the absence of chemical substance (yeast gene YOL082W, cultured two hours with substance): 2.0
The level of expressed mRNA in the presence of chemical substance/The level of expressed mRNA in the absence of chemical substance (yeast gene YOL083W, cultured two hours with substance): 2.3
The level of expressed mRNA in the presence of chemical substance/The level of expressed mRNA in the absence of chemical substance (yeast gene YOL101C, cultured two hours with substance): 0.3
The level of expressed mRNA in the presence of chemical substance/The level of expressed mRNA in the absence of chemical substance (yeast gene YOL117W, cultured two hours with substance): 4.1
The level of expressed mRNA in the presence of chemical substance/The level of expressed mRNA in the absence of chemical substance (yeast gene YOL131W, cultured two hours with substance): 8.1
The level of expressed mRNA in the presence of chemical substance/The level of expressed mRNA in the absence of chemical substance (yeast gene YOL150C, cultured two hours with substance): 8.3
The level of expressed mRNA in the presence of chemical substance/The level of expressed mRNA in the absence of chemical substance (yeast gene YOL162W, cultured two hours with substance): 6.8
The level of expressed mRNA in the presence of chemical substance/The level of expressed mRNA in the absence of chemical substance (yeast gene YOL163W (transport facilitation protein gene)): 6.2
The level of expressed mRNA in the presence of chemical substance/The level of expressed mRNA in the absence of chemical substance (yeast gene YOL165C): 23.3
The level of expressed mRNA in the presence of chemical substance/The level of expressed mRNA in the absence of chemical substance (yeast gene YOL165C, cultured for two hours with substance): 23.3
The level of expressed mRNA in the presence of chemical substance/The level of expressed mRNA in the absence of chemical substance (yeast gene YOR019W, cultured two hours with substance): 7.1
The level of expressed mRNA in the presence of chemical substance/The level of expressed mRNA in the absence of chemical substance (yeast gene YOR197W, cultured two hours with substance): 0.7
The level of expressed mRNA in the presence of chemical substance/The level of expressed mRNA in the absence of chemical substance (yeast gene YOR248W, cultured two hours with substance): 0.4
The level of expressed mRNA in the presence of chemical substance/The level of expressed mRNA in the absence of chemical substance (yeast gene YOR382W, cultured two hours with substance): 12.8
The level of expressed mRNA in the presence of chemical substance/The level of expressed mRNA in the absence of chemical substance (yeast gene YOR383C): 4.5
The level of expressed mRNA in the presence of chemical substance/The level of expressed mRNA in the absence of chemical substance (yeast gene YOR391C, cultured two hours with substance): 18.1
The level of expressed mRNA in the presence of chemical substance/The level of expressed mRNA in the absence of chemical substance (yeast gene YPL017C, metabolism protein genes): 6.7
The level of expressed mRNA in the presence of chemical substance/The level of expressed mRNA in the absence of chemical substance (yeast gene YPL052W, cultured two hours with substance): 4.8
The level of expressed mRNA in the presence of chemical substance/The level of expressed mRNA in the absence of chemical substance (yeast gene YPL087W, cultured two hours with substance): 2.2
The level of expressed mRNA in the presence of chemical substance/The level of expressed mRNA in the absence of chemical substance (yeast gene YPL171C, cultured for two hours with substance): 50.6
The level of expressed mRNA in the presence of chemical substance/The level of expressed mRNA in the absence of chemical substance (yeast gene YPL196W, cultured two hours with substance): 2.8
The level of expressed mRNA in the presence of chemical substance/The level of expressed mRNA in the absence of chemical substance (yeast gene YPL206C, cultured two hours with substance): 1.1
The level of expressed mRNA in the presence of chemical substance/The level of expressed mRNA in the absence of chemical substance (yeast gene YPL222W, cultured two hours with substance): 3.4
The level of expressed mRNA in the presence of chemical substance/The level of expressed mRNA in the absence of chemical substance (yeast gene YPL223C (stress protein genes)): 16.5
The level of expressed mRNA in the presence of chemical substance/The level of expressed mRNA in the absence of chemical substance (yeast gene YPR023C, cultured two hours with substance): 2.8
The level of expressed mRNA in the presence of chemical substance/The level of expressed mRNA in the absence of chemical substance (yeast gene YPR079W, cultured two hours with substance): 2.8
The level of expressed mRNA in the presence of chemical substance/The level of expressed mRNA in the absence of chemical substance (yeast gene YPR151C, cultured two hours with substance): 9.5
